# Test results reported in US4419352A, “Pyranoquinolinones and analogs thereof” (Fisons Limited, priority 1978, dated 1983).
# Tests used:
# [1] = tested on: human volunteer suffering from specific allergic asthma; experiment: antigen inhalation provocation test (F E V1.0, percent protection); format: in vivo; conditions: F E V1.0, after drug administration
# Method: Clinical evaluation of the compounds was carried out using the antigen inhalation provocation test described below:
# The human volunteer selected for test purposes suffered from specific allergic asthma. In this subject an asthma attack normally followed the inhalation of an antigen to which they were specifically sensitive. The degree of asthma provoked by this method can be measured by repeated examination of the air way resistance.
# The antiallergic activity of a compound is estimated from the difference between the maximum percent F E V1.0 reduction following control and test provocations after drug administration conducted under identical experimental conditions.
# The results of the tests are expressed as percent protection according to the formula: [formula]
# anaesthatised cats = experiment: blood pressure, heart rate and cardiac output of anaesthetised cats; format: in vivo, cat
# [2] = tested on: cardiovascular response to isoprenaline; experiment: cardiovascular response to isoprenaline in the cat; format: in vivo
# [3] = tested on: cardiovascular response to isoprenaline; experiment: cardiovascular response to isoprenaline in the rat; format: in vivo
# rats = experiment: food choice (revulsion) test in rats; format: in vivo, rat
# [4] = sub-cutaneous LD50 in mice; conditions: mouse, in vivo, sc
# [5] = sub-cutaneous LD50 in rats; conditions: rat, in vivo, sc
structure (smiles),measurement,setting,value
CCCc1c2nc(C(=O)[O-])cc(Cl)c2cc2c(=O)cc(C(=O)[O-])oc12.[Na+].[Na+],protection against asthma provoked by antigen inhalation,[1],very considerable protection
same,effect on blood pressure,anaesthatised cats,without effect
same,effect on cardiac output,anaesthatised cats,without effect
same,effect on heart rate,anaesthatised cats,without effect
same,alteration of cardiovascular response to isoprenaline,[2],did not alter
same,alteration of cardiovascular response to isoprenaline,[3],did not alter
same,revulsion when rats choose between food source containing it and one which does not,rats,does not produce revulsion
same,LD50,[4],> 2000 mg/kg
same,LD50,[5],> 2000 mg/kg
